{"source": "patent US11654096B2", "about": "(L'OREAL, priority 2017, dated 2023)", "format_in_all_cases": "cell-based", "key": {"[1]": {"test_system": "normal human epidermal keratinocytes (NHEKs)", "assay": "Neosynthesis of total GAGs by NHEKs, [3H]-glucosamine incorporation", "conditions": "for % Control / Mean (cpm) / [3H]-glucosamine (cpm): total GAGs, NHEKs; for [3H]-glucosamine (cpm): single replicates", "protocol": "(§1) The effects of the compounds on the neosynthesis of total and sulfated glycosaminoglycans (GAGs) were studied on two cell models, normal human epidermal keratinocytes (NHEKs) and normal human dermal fibroblasts (NHDFs). The effects of these compounds were evaluated by measuring: • the incorporation of [3H]-glucosamine into the total GAGs neosynthesized by NHEKs and by NHDFs, • the incorporation of [35S]-sulfate into the sulfated GAGs neosynthesized by NHEKs and by NHDFs.\n(§2) The keratinocytes were seeded into wells and cultured in culture medium for 24 hours. The medium was then replaced with culture medium containing or not containing (control) the compounds to be tested or the reference (4-nitrophenyl β-D-xylopyranoside at 300 μM), then the cells were incubated for 72 hours with the addition of the [3H]-glucosamine radioactive label (total GAGs) or of the [35S]-sulfate radioactive label (sulfated GAGs) for the final 24 hours of incubation.\n(§3) At the end of the incubation, the glycosaminoglycans were extracted from the cells with a chaotropic buffer. The GAGs were then purified by ion exchange chromatography: adsorption of the anionic molecules on Q-Sepharose beads and desorption of the molecules of low or medium anionic nature, with a suitable solution.\n(§4) The radioactivity incorporated into the molecules left on the support (GAGs, predominantly) was measured by liquid scintillation.\n(§5) All the experimental conditions were performed in n=3.\n(§6) The inter-group comparisons were performed using Student's non-paired two-sided t-test. The statistical analyses can be interpreted if n≥5; however, for n<5, the data calculated are provided only by way of indication."}, "[2]": {"test_system": "normal human epidermal keratinocytes (NHEKs)", "assay": "Neosynthesis of sulfated GAGs by NHEKs, [35S]-sulfate incorporation", "conditions": "for % Control / Mean (cpm) / [35S]-Sulfate (cpm): sulfated GAGs, NHEKs; for [35S]-Sulfate (cpm): single replicates", "protocol": "as §1, §2, §3, §4, §5, §6"}, "[3]": {"test_system": "normal human dermal fibroblasts (NHDFs)", "assay": "Neosynthesis of total GAGs by NHDFs, [3H]-glucosamine incorporation", "conditions": "for % Control / Mean (cpm) / [3H]-glucosamine (cpm): total GAGs, NHDFs; for [3H]-glucosamine (cpm): single replicates", "protocol": "as §1\n(§7) The fibroblasts were seeded into wells and cultured in culture medium for 24 hours. The medium was then replaced with culture medium containing or not containing (controt) the compounds to be tested or the reference (TGF-β at 10 ng/ml), then the cells were incubated for 72 hours with the addition of the [35S]-sulfate radioactive label (sulfated GAGs) or of the [3H]-glucosamine radioactive label (total GAGs) for the final 24 hours of incubation.\nas §3, §4, §5, §6"}, "[4]": {"test_system": "normal human dermal fibroblasts (NHDFs)", "assay": "Neosynthesis of sulfated GAGs by NHDFs, [35S]-sulfate incorporation", "conditions": "for % Control / Mean (cpm) / [35S]-Sulfate (cpm): sulfated GAGs, NHDFs; for [35S]-Sulfate (cpm): single replicates", "protocol": "as §1, §7, §3, §4, §5, §6"}}, "note": "Where “and” joins values, the source holds several entries; their conditions need not be identical. Identical values can stand only once.", "data": [{"smiles": "Oc1ccc(C=Cc2cc(O)cc(O)c2)cc1", "note": "[Resveratrol]", "values": [{"measurement": "effect on the neosynthesis of the total GAGs by the NHEKs (in words)", "setting": "[1]; tested at 10 and 100 μM", "value": "inhibited, in a concentration-dependent manner"}, {"measurement": "% Control", "setting": "[1]; campaign 1, 10 μM", "value": 64, "unit": "%"}, {"measurement": "Mean (cpm)", "setting": "[1]; campaign 1, 10 μM", "value": 8328, "unit": "cpm"}, {"measurement": "[3H]-glucosamine (cpm)", "setting": "[1]; campaign 1, 10 μM", "value": "7566 cpm and 8537 cpm and 8880 cpm"}, {"measurement": "% Control", "setting": "[1]; campaign 1, 100 μM", "value": 13, "unit": "%"}, {"measurement": "Mean (cpm)", "setting": "[1]; campaign 1, 100 μM", "value": 1743, "unit": "cpm"}, {"measurement": "[3H]-glucosamine (cpm)", "setting": "[1]; campaign 1, 100 μM", "value": "1509 cpm and 1754 cpm and 1967 cpm"}, {"measurement": "% Control", "setting": "[1]; campaign 2, 1 μM", "value": 113, "unit": "%"}, {"measurement": "Mean (cpm)", "setting": "[1]; campaign 2, 1 μM", "value": 9628, "unit": "cpm"}, {"measurement": "[3H]-glucosamine (cpm)", "setting": "[1]; campaign 2, 1 μM", "value": "10734 cpm and 10012 cpm and 8137 cpm"}, {"measurement": "% Control", "setting": "[1]; campaign 2, 10 μM", "value": 86, "unit": "%"}, {"measurement": "Mean (cpm)", "setting": "[1]; campaign 2, 10 μM", "value": 7347, "unit": "cpm"}, {"measurement": "[3H]-glucosamine (cpm)", "setting": "[1]; campaign 2, 10 μM", "value": "6772 cpm and 7143 cpm and 8126 cpm"}, {"measurement": "% Control", "setting": "[2]; campaign 1, 10 μM", "value": 77, "unit": "%"}, {"measurement": "Mean (cpm)", "setting": "[2]; campaign 1, 10 μM", "value": 5254, "unit": "cpm"}, {"measurement": "[35S]-Sulfate (cpm)", "setting": "[2]; campaign 1, 10 μM", "value": "5238 cpm and 5506 cpm and 5018 cpm"}, {"measurement": "% Control", "setting": "[2]; campaign 1, 100 μM", "value": 27, "unit": "%"}, {"measurement": "Mean (cpm)", "setting": "[2]; campaign 1, 100 μM", "value": 1802, "unit": "cpm"}, {"measurement": "[35S]-Sulfate (cpm)", "setting": "[2]; campaign 1, 100 μM", "value": "1836 cpm and 1725 cpm and 1845 cpm"}, {"measurement": "Mean (cpm)", "setting": "[2]; campaign 2, 1 μM", "value": 6530, "unit": "cpm"}, {"measurement": "[35S]-Sulfate (cpm)", "setting": "[2]; campaign 2, 1 μM", "value": "6885 cpm and 6817 cpm and 5888 cpm"}, {"measurement": "% Control", "setting": "[2]; campaign 2, 10 μM", "value": 94, "unit": "%"}, {"measurement": "Mean (cpm)", "setting": "[2]; campaign 2, 10 μM", "value": 4973, "unit": "cpm"}, {"measurement": "[35S]-Sulfate (cpm)", "setting": "[2]; campaign 2, 10 μM", "value": "5137 cpm and 4981 cpm and 4802 cpm"}, {"measurement": "effect on the neosynthesis of the sulfated GAGs by the NHEKs (in words)", "setting": "[2]; tested at 10 and 100 μM", "value": "inhibited, in a concentration-dependent manner"}, {"measurement": "effect on the neosynthesis of the total GAGs by the NHDFs (in words)", "setting": "[3]; tested at 10 and 100 μM", "value": "overall inhibited"}, {"measurement": "% Control", "setting": "[3]; campaign 2, 10 μM", "value": 98, "unit": "%"}, {"measurement": "Mean (cpm)", "setting": "[3]; campaign 2, 10 μM", "value": 1534, "unit": "cpm"}, {"measurement": "[3H]-glucosamine (cpm)", "setting": "[3]; campaign 2, 10 μM", "value": "1439 cpm and 1533 cpm and 1630 cpm"}, {"measurement": "% Control", "setting": "[3]; campaign 2, 100 μM", "value": 86, "unit": "%"}, {"measurement": "Mean (cpm)", "setting": "[3]; campaign 2, 100 μM", "value": 1339, "unit": "cpm"}, {"measurement": "[3H]-glucosamine (cpm)", "setting": "[3]; campaign 2, 100 μM", "value": "1253 cpm and 1360 cpm and 1404 cpm"}, {"measurement": "% Control", "setting": "[4]; campaign 1, 10 μM", "value": 93, "unit": "%"}, {"measurement": "Mean (cpm)", "setting": "[4]; campaign 1, 10 μM", "value": 1527, "unit": "cpm"}, {"measurement": "[35S]-Sulfate (cpm)", "setting": "[4]; campaign 1, 10 μM", "value": "1506 cpm and 1556 cpm and 1519 cpm"}, {"measurement": "% Control", "setting": "[4]; campaign 1, 100 μM", "value": 62, "unit": "%"}, {"measurement": "Mean (cpm)", "setting": "[4]; campaign 1, 100 μM", "value": 1019, "unit": "cpm"}, {"measurement": "[35S]-Sulfate (cpm)", "setting": "[4]; campaign 1, 100 μM", "value": "967 cpm and 1045 cpm and 1046 cpm"}, {"measurement": "% Control", "setting": "[4]; campaign 2, 10 μM", "value": 101, "unit": "%"}, {"measurement": "Mean (cpm)", "setting": "[4]; campaign 2, 10 μM", "value": 571, "unit": "cpm"}, {"measurement": "[35S]-Sulfate (cpm)", "setting": "[4]; campaign 2, 10 μM", "value": "613 cpm and 513 cpm and 586 cpm"}, {"measurement": "% Control", "setting": "[4]; campaign 2, 100 μM", "value": 54, "unit": "%"}, {"measurement": "Mean (cpm)", "setting": "[4]; campaign 2, 100 μM", "value": 305, "unit": "cpm"}, {"measurement": "[35S]-Sulfate (cpm)", "setting": "[4]; campaign 2, 100 μM", "value": "355 cpm and 283 cpm and 276 cpm"}, {"measurement": "effect on the neosynthesis of the sulfated GAGs by the NHDFs (in words)", "setting": "[4]; tested at 10 and 100 μM", "value": "overall inhibited"}]}]}
